From patent US20230084978A1, “OPTIMIZATION OF PEPTIDE-MELANIN BINDING” (ASSITANCE PUBLIQUE - HÔPITAUX DE PARIS, priority 2020, published 2023)
Non-standard residues stand in square brackets, D forms with d. No end group written: not given here. Hyp = O=C(O)[C@@H]1C[C@@H](O)CN1

Tests used:
[1] = Binding of peptides to synthetic melanin (Tricine-SDS-PAGE analysis); settings: for Binding of peptides on synthetic melanin, Mel + peptide 2 hours at pH 7.4: filtered (10 kDa) preformed melanin; for Binding of peptides on synthetic melanin, Mel + peptide 2 hours at pH 7.4 / Binding of peptides on synthetic melanin, Mel + peptide 18 hours at pH 7.4 / Binding of peptides on synthetic melanin, Mel + peptide 18 hours at pH 8.5 / Binding of peptides on synthetic melanin, Mel + peptide 10 minutes / Binding of peptides on synthetic melanin, Mel + peptide 2 hours / Binding of peptides on synthetic melanin, Mel + peptide 18 hours: peptide/L-Dopa 1/4; for Binding of peptides on synthetic melanin, Mel + peptide 18 hours at pH 7.4 / Binding of peptides on synthetic melanin, Mel + peptide 18 hours at pH 8.5: filtered preformed melanin; for Binding of peptides on synthetic melanin, Mel + peptide: L-Dopa polymerized first, peptide added (1/4); for Binding of peptides on synthetic melanin, Peptide-Mel: peptide/L-Dopa 1/4 mixed, then 2 hours at pH 8.5 and 60° C.; for Binding of peptides on synthetic melanin, Mel + peptide 10 minutes / Binding of peptides on synthetic melanin, Mel + peptide 2 hours / Binding of peptides on synthetic melanin, Mel + peptide 18 hours: filtered preformed melanin at pH 7.5; for peptide binding to melanin: binding-promoting amino-acid at NH2-terminal vs COOH terminal end
Text: The binding of the peptide to the melanin can be verified by Tricine-SDS-PAGE analysis as described in Carpentier; 2017 (op. cit.). Briefly, samples (peptide-Mel or peptide alone) are loaded on acrylamide gels. Following electrophoresis, the gels are stained with Coomassie Brilliant Blue R-250, allowing the quantification of the free peptide in the gel. The binding of peptides to melanin can be expressed as the ratio: [amount of unbound peptide in samples Peptide-Mel/amount of peptides in control samples containing peptides alone.
Peptides were mixed with L-Dopa (weight ratio peptide/L-Dopa=1/4 and 1/6 for gp100 and EphA2, respectively) then incubated for 2 hours at pH 8.5 and 60° C. under agitation to ensure oxygenation of the solution to generate nanoparticles of melanin-bound peptides (Peptide-Mel). Alternatively, L-Dopa alone (0.8 mg/ml) was polymerized into melanin for 2 h at pH 8.5 and 60° C. under agitation, before the peptides (weight ratio peptide/L-Dopa=1/4 and 1/6 for gp100 and EphA2, respectively) were added to the solution (Mel+peptide). Tricine-SDS-PAGE analysis was performed as described in Carpentier; 2017 (op. cit.). Briefly, samples (peptide-Mel or peptide alone) were loaded on acrylamide gels. Following electrophoresis, the gels were stained with Coomassie Brilliant Blue R-250 and imaged with the ChemiDoc XRS+ system (Bio-Rad Laboratory), allowing the quantification of the free peptide in the gel. The binding of peptides to melanin was expressed as the ratio: [amount of unbound peptide in samples Peptide-Mel/amount of peptides in control samples containing peptides alone]
First column (Peptide-Mel): L-Dopa (0.8 mg/ml) was mixed with peptides (weight ratio peptide/L-Dopa=1/4) then incubated for 2 hours at pH 8.5 and 60° C. to generate nanoparticles of melanin-bound peptides. Alternatively (second column; Mel+peptide), L-Dopa alone (0.8 mg/ml) was first polymerized into melanin for 2 h at pH 8.5 and 60° C. under vigorous agitation, before the peptides (weight ratio peptide/L-Dopa=1/4) were added to the solution and incubated for 2 hours at room temperature. In both cases, the percentage of peptides that bound to melanin was then quantified with SPS-page analysis, as described in table 1. (ND=not done)
(§1) L-Dopa (0.8 mg/ml) underwent an oxidative polymerization at pH 8.5 in aerobic conditions for 2 hours at 60° C. The reaction mixture was then filtered on a 10 kDa filter, and the retentate containing the synthetic melanin was resuspended at pH 7.5 in phosphate buffer. Peptides were then added (at the weight ratio peptide/L-Dopa=1/4) and the mixture was incubated for various periods of time and or pH. The percentage of peptides that bound to melanin was then quantified with SPS-page analysis, as described in table 1. (ND=not done).
as §1, with “8.5 and 60° C.” for “8.5 in aerobic conditions”, “2 hours.” for “2 hours at 60° C.”, “of time. Binding” for “of time and or pH. The percentage”, “of the” for “of”, “peptides” for “peptides that bound to melanin”, “(ND=not done)” for “(ND=not done).”

[2] = test system: humanized female HLADRB1* 0101/HLA-A*0201 (HHD DR1) mice; assay: CTL response (IFNg-SFCs of re-stimulated splenocytes) after subcutaneous immunization in humanized mice; assay type: in vivo; settings: 10 μg/mouse subcutaneous, day 8, more than 10 spots is positive
Procedure: CTL response was evaluated after subcutaneous immunizations in humanized female HLADRB1* 0101/HLA-A*0201 (HHD DR1) mice.
L-Dopa (0.8 mg/ml) underwent an oxidative polymerization at pH 8.5 in aerobic conditions for 2 hours at 60° C. The reaction mixture was then filtered on a 10 kDa filter, and the retentate containing the synthetic melanin was resuspended at pH 7.5 in phosphate buffer.
Peptides (A10, SEQ ID NO: 29; A8, SEQ ID NO: 34; A30, SEQ ID NO: 31, 10 μg/mouse) were then added (at the weight ratio peptide/L-Dopa=1/4).
Mixtures (either Mel+peptides or Peptides alone) were rapidly (<1 hour) used for subcutaneous immunizations in mice. Phosphorothioate oligonucleotide CpG-28 (5′-[…], SEQ ID NO: 21) was added to vaccine formulations (10 μg/mouse) just before the immunizations. Mice were sacrificed on day 8 and the CTL response was performed as described in Carpentier; 2017. Briefly, splenocytes were re-stimulated in vitro with the corresponding peptide (non-conjugated to melanin) and the numbers of IFNg-SFCs (Spot forming cells) were measured and expressed as Mean+/−S.E.M. (n=4 to 8 mice/group). More than 10 spots is considered as a positive immune response

Row | Substance | Binding of peptides on synthetic melanin, Mel + peptide 2 hours at pH 7.4 [1] [%] | Binding of peptides on synthetic melanin, Mel + peptide 18 hours at pH 7.4 [1] [%] | Binding of peptides on synthetic melanin, Mel + peptide 18 hours at pH 8.5 [1] [%] | Binding of peptides on synthetic melanin, Mel + peptide ([1]; 2 hours at room temperature) [%] | Binding of peptides on synthetic melanin, Peptide-Mel [1] [%] | other results
1 | Acetyl-K SIYRYYGL (Ac-KSIYRYYGL) [SEQ ID NO: 7] | 0 | 31 | 62 |  |  | 
2 | Acetyl-R C SIYRYYGL (Ac-RCSIYRYYGL) [SEQ ID NO: 8] | 53 | 46 | 42 | 53 | 74 | 
3 | Acetyl-R SIYRYYGL (Ac-RSIYRYYGL) [SEQ ID NO: 4] | 17 | 2 | 0 | 17 | 0 | melanin binding (in words), Peptide-Mel ([1]; peptide mixed with L-Dopa, 2 hours at pH 8.5): No binding
4 | C KVPRNQDWL (CKVPRNQDWL; Modified gp100 peptide) [SEQ ID NO: 17] |  |  |  |  |  | Binding of peptides on synthetic melanin, Mel + peptide 10 minutes [1]: 9%; Binding of peptides on synthetic melanin, Mel + peptide 2 hours [1]: 54%; Binding of peptides on synthetic melanin, Mel + peptide 18 hours [1]: 99%; binding to melanin (in words), cysteine in oxidized or reduced state ([1]; preformed filtered melanin, 2 hours at room temperature): Binding was observed in both cases
5 | CKSVWSKLQSIGIRQH (Modified UCP2 Peptide) [A10] |  |  |  |  |  | numbers of IFNg-SFCs (Spot forming cells), Mean ([2]; Mel + pept + CpG-28): 150; numbers of IFNg-SFCs (Spot forming cells), Mean ([2]; Pept + CpG-28): 18
6 | CKVFAGIPTV (Modified PTPRZ1 Epitope) [A30] |  |  |  |  |  | numbers of IFNg-SFCs (Spot forming cells), Mean ([2]; Mel + pept + CpG-28): 182
7 | CKVFAGIPTVASDTV (Modified PTPRZ1 Epitope) [A8] |  |  |  |  |  | numbers of IFNg-SFCs (Spot forming cells), Mean ([2]; Mel + pept + CpG-28): 29; numbers of IFNg-SFCs (Spot forming cells), Mean ([2]; Pept + CpG-28): 5
8 | HydroxP KVPRNQDWL ([Hyp]KVPRNQDWL) [SEQ ID NO: 16] |  |  |  |  |  | Binding of peptides on synthetic melanin, Mel + peptide 10 minutes [1]: 12%; Binding of peptides on synthetic melanin, Mel + peptide 2 hours [1]: 35%; Binding of peptides on synthetic melanin, Mel + peptide 18 hours [1]: 100%
9 | HydroxyP SIYRYYGL ([Hyp]SIYRYYGL) [SEQ ID NO: 6] | 23 | 39 | 74 | 23 | 95 | 
10 | M KVPRNQDWL (MKVPRNQDWL; Modified gp100 peptide) [SEQ ID NO: 18] |  |  |  |  |  | Binding of peptides on synthetic melanin, Mel + peptide 10 minutes [1]: 7%; Binding of peptides on synthetic melanin, Mel + peptide 2 hours [1]: 43%; Binding of peptides on synthetic melanin, Mel + peptide 18 hours [1]: 100%
11 | P KVPRNQDWL (PKVPRNQDWL; Modified gp100 peptide) [SEQ ID NO: 15] |  |  |  |  |  | Binding of peptides on synthetic melanin, Mel + peptide 10 minutes [1]: 13%; Binding of peptides on synthetic melanin, Mel + peptide 2 hours [1]: 11%; Binding of peptides on synthetic melanin, Mel + peptide 18 hours [1]: 100%
12 | P SIYRYYGL (PSIYRYYGL; Modified test peptide) [SEQ ID NO: 5] | 7 | 22 | 41 | 7 | 87 | 
13 | SIYRYYGL [SEQ ID NO: 3, reference compound] | 0 | 28 | 31 | 0 | 90 | 
14 | VYDFFVWL-X [SEQ ID NO: 20] |  |  |  |  |  | peptide binding to melanin [1]: 55%
15 | X-VYDFFVWL [SEQ ID NO: 19] |  |  |  |  |  | peptide binding to melanin [1]: 51%

Further lines, with some results ahead:

Row | Binding of peptides on synthetic melanin, Mel + peptide 2 hours at pH 7.4 [1] [%] | Binding of peptides on synthetic melanin, Mel + peptide 18 hours at pH 7.4 [1] [%] | Binding of peptides on synthetic melanin, Mel + peptide 18 hours at pH 8.5 [1] [%] | Binding of peptides on synthetic melanin, Mel + peptide ([1]; 2 hours at room temperature) [%] | Binding of peptides on synthetic melanin, Peptide-Mel [1] [%] | Substance | other results
16 | 0 |  |  | 0 | 5 | Acetyl-R F SIYRYYGL (Ac-RFSIYRYYGL) [SEQ ID NO: 13] | 
17 |  |  |  |  | 60 | Acetyl-R H SIYRYYGL (Ac-RHSIYRYYGL) [SEQ ID NO: 9] | 
18 | 0 | 13 | 32 |  |  | Acetyl-R M SIYRYYGL (Ac-RMSIYRYYGL) [SEQ ID NO: 11] | 
19 | 0 | 12 |  |  |  | Acetyl-R S SIYRYYGL (Ac-RSSIYRYYGL) [SEQ ID NO: 10] | 
20 | 0 |  |  | 0 | 10 | Acetyl-R T SIYRYYGL (Ac-RTSIYRYYGL) [SEQ ID NO: 12] | 
21 | 0 |  |  | 0 | 56 | Acetyl-R W SIYRYYGL (Ac-RWSIYRYYGL) [SEQ ID NO: 14] | 
